Laboratory results as given in PubChem BioAssay AID2060353 (Molecular Pharmacology Branch, DTP, NCI, 2025).

System: 521955-158-R2-J5-PDC spheroids with stroma, growth inhibition
Experiment: Anticancer human tumor 521955-158-R2-J5-PDC patient-derived pancreatic carcinoma cell line growth inhibition [TAK]
Conditions: for IC50: curve of first compound; for viability, T/C: stronger effect = lower value
In short: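 Tumor cells were grown as spheroids with HUVEC and hMSC (60:25:15) and treated with targeted agents combined with TAK-243 or ipatasertib. Drugs were tested in half-log steps down from near the clinical Cmax, or from 10 microM where Cmax was unknown.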

[1] = second compound 0.3 µM, first compound 0.0316 µM
[2] = second compound 0.3 µM, first compound 0.1 µM
[3] = second compound 0.3 µM, first compound 0.316 µM
[4] = second compound 0.3 µM, first compound 1 µM
[5] = second compound 0.949 µM, first compound 0.0316 µM
[6] = second compound 0.949 µM, first compound 0.1 µM
[7] = second compound 0.949 µM, first compound 0.316 µM
[8] = second compound 0.949 µM, first compound 1 µM
[9] = second compound 3 µM, first compound 0.0316 µM
[10] = second compound 3 µM, first compound 0.1 µM
[11] = second compound 3 µM, first compound 0.316 µM
[12] = second compound 3 µM, first compound 1 µM
[13] = second compound 9.49 µM, first compound 0.0316 µM
[14] = second compound 9.49 µM, first compound 0.1 µM
[15] = second compound 9.49 µM, first compound 0.316 µM
[16] = second compound 9.49 µM, first compound 1 µM
[17] = second compound 30 µM, first compound 0.0316 µM
[18] = second compound 30 µM, first compound 0.1 µM
[19] = second compound 30 µM, first compound 0.316 µM
[20] = second compound 30 µM, first compound 1 µM
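Note: spheroids exposed to drugs for seven days before readout.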
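Throughout, for viability, T/C: 100% = DMSO vehicle control viability.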

| SMILES | IC50 (second compound 0.3 µM) [nM] | IC50 (second compound 0.949 µM) [nM] | IC50 (second compound 3 µM) [nM] | IC50 (second compound 9.49 µM) [nM] | IC50 (second compound 30 µM) [nM] | viability, T/C [1] [%] | viability, T/C [2] [%] | viability, T/C [3] [%] | viability, T/C [4] [%] | viability, T/C [5] [%] | viability, T/C [6] [%] | viability, T/C [7] [%] | viability, T/C [8] [%] | viability, T/C [9] [%] | viability, T/C [10] [%] | viability, T/C [11] [%] | viability, T/C [12] [%] | viability, T/C [13] [%] | viability, T/C [14] [%] | viability, T/C [15] [%] | further results |
| --- | --- | --- | --- | --- | --- | --- | --- | --- | --- | --- | --- | --- | --- | --- | --- | --- | --- | --- | --- | --- | --- |
| COc1c(OCCCN2CCOCC2)ccc2c3n(c(=NC(=O)c4cnc(N)nc4)nc12)CCN3 + CC(C)NCC(C(=O)N1CCN(c2ncnc3c2C(C)CC3O)CC1)c1ccc(Cl)cc1 | 18.5 | 5.05 | < 3.16 | < 3.16 | < 3.16 | 40.2 | 25.3 | 7.66 | 7.14 | 31.4 | 15.8 | 8.04 | 7.27 | 17.3 | 10.1 | 7.86 | 7.56 | 12.8 | 8.78 | 7.47 | viability, T/C (second compound 0.3 µM, first compound 0.00316 µM): 69.3%; viability, T/C (second compound 0.3 µM, first compound 0.01 µM): 60.2%; viability, T/C (second compound 0.949 µM, first compound 0.00316 µM): 51%; viability, T/C (second compound 0.949 µM, first compound 0.01 µM): 48.7%; viability, T/C (second compound 3 µM, first compound 0.00316 µM): 41%; viability, T/C (second compound 3 µM, first compound 0.01 µM): 28%; viability, T/C (second compound 9.49 µM, first compound 0.00316 µM): 23.8%; viability, T/C (second compound 9.49 µM, first compound 0.01 µM): 16.5%; viability, T/C [16]: 7.49%; viability, T/C (second compound 30 µM, first compound 0.00316 µM): 19.2%; viability, T/C (second compound 30 µM, first compound 0.01 µM): 13.1%; viability, T/C [17]: 8.7%; viability, T/C [18]: 7.22%; viability, T/C [19]: 6.67%; viability, T/C [20]: 5.5% |
| Cc1nc(NC(=O)N2CCCC2C(N)=O)sc1-c1ccnc(C(C)(C)C(F)(F)F)c1 (stereo not given) + CC(C)NCC(C(=O)N1CCN(c2ncnc3c2C(C)CC3O)CC1)c1ccc(Cl)cc1 | 909 | 533 | 159 | 123 | < 31.6 | 109 | 84.3 | 58.2 | 49 | 76.2 | 69 | 52.5 | 45 | 78.7 | 54 | 40.6 | 31.3 | 70.7 | 55.4 | 29.5 | viability, T/C (second compound 0.3 µM, first compound 3.16 µM): 45.1%; viability, T/C (second compound 0.3 µM, first compound 10 µM): 30.1%; viability, T/C (second compound 0.949 µM, first compound 3.16 µM): 34.8%; viability, T/C (second compound 0.949 µM, first compound 10 µM): 27.7%; viability, T/C (second compound 3 µM, first compound 3.16 µM): 22.3%; viability, T/C (second compound 3 µM, first compound 10 µM): 15.2%; viability, T/C [16]: 19.6%; viability, T/C (second compound 9.49 µM, first compound 3.16 µM): 13.7%; viability, T/C (second compound 9.49 µM, first compound 10 µM): 8.86%; viability, T/C [17]: 48%; viability, T/C [18]: 42.7%; viability, T/C [19]: 23.9%; viability, T/C [20]: 17.2%; viability, T/C (second compound 30 µM, first compound 3.16 µM): 11%; viability, T/C (second compound 30 µM, first compound 10 µM): 6.07% |
